Measurements reported in ChEMBL document CHEMBL1201862, “PubChem BioAssay data set” (2004).
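In this assay, cells in 96-well plates receive the compound at five concentrations for 48 hours. Endpoints are linearly interpolated between the surrounding concentrations. GI50 = concentration required for 50% inhibition of growth.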 Calls of active or inactive are those of the source. No stated cut-off is given here; in the data, active = GI50 up to about 1.1 µM and inactive = higher.

Legend:
Assay in all cases: growth of human tumour cells (NCI), 48 h
A549 = tested on: A549
CCRF-CEM = tested on: CCRF-CEM
HCC 2998 = tested on: HCC 2998
HCT-15 = tested on: HCT-15
MOLT-4 = tested on: MOLT-4
NCI-H23 = tested on: NCI-H23
OVCAR-4 = tested on: OVCAR-4
OVCAR-5 = tested on: OVCAR-5
RXF 393 = tested on: RXF 393
SF-268 = tested on: SF-268
SF-295 = tested on: SF-295
SK-MEL-28 = tested on: SK-MEL-28
SK-MEL-5 = tested on: SK-MEL-5
SK-OV-3 = tested on: SK-OV-3
SNB-19 = tested on: SNB-19
SW-620 = tested on: SW-620
U-251 = tested on: U-251
UACC-62 = tested on: UACC-62
UO-31 = tested on: UO-31
Malme-3M = tested on: Malme-3M

SMILES	GI50 (A549)	GI50 (CCRF-CEM)	GI50 (HCC 2998)	GI50 (HCT-15)	GI50 (MOLT-4)	GI50 (NCI-H23)	GI50 (OVCAR-4)	GI50 (OVCAR-5)	GI50 (RXF 393)	GI50 (SF-268)	GI50 (SF-295)	GI50 (SK-MEL-28)	GI50 (SK-MEL-5)	GI50 (SK-OV-3)	GI50 (SNB-19)	GI50 (SW-620)	GI50 (U-251)	GI50 (UACC-62)	GI50 (UO-31)	GI50 (Malme-3M)
N/N=C(\C(=O)Nc1c(Cl)cc([N+](=O)[O-])cc1Cl)C(c1cnc2ccc([N+](=O)[O-])cc2n1)[N+](=O)[O-] (stereo not given)	> 100 µM (inactive)	77.1 µM (inactive)	82.2 µM (inactive)	> 100 µM	47.6 µM (inactive)	> 100 µM (inactive)	> 100 µM (inactive)	> 100 µM (inactive)	> 100 µM (inactive)	> 100 µM (inactive)	> 100 µM (inactive)	> 100 µM (inactive)	> 100 µM (inactive)	> 100 µM (inactive)	> 100 µM (inactive)	99.3 µM (inactive)	> 100 µM (inactive)	36.9 µM (inactive)	87.7 µM (inactive)	–
CN1C(=O)CC(=O)N1/C(=C/c1ccccc1)c1ccccc1	85.3 µM (inactive)	21.3 µM (inactive)	> 100 µM (inactive)	–	30.3 µM (inactive)	> 100 µM (inactive)	49.8 µM (inactive)	> 100 µM (inactive)	14 µM (inactive)	> 100 µM (inactive)	67 µM (inactive)	> 100 µM (inactive)	72.8 µM (inactive)	> 100 µM (inactive)	> 100 µM (inactive)	> 100 µM (inactive)	> 100 µM (inactive)	76.9 µM (inactive)	18.1 µM (inactive)	–
CCOC(=O)C1(C(F)(F)F)N=C(CC)OC(N2CCOCC2)=N1 (stereo not given)	> 100 µM (inactive)	> 100 µM (inactive)	> 100 µM (inactive)	> 100 µM	> 100 µM (inactive)	> 100 µM (inactive)	> 100 µM (inactive)	> 100 µM (inactive)	> 100 µM (inactive)	> 100 µM (inactive)	> 100 µM (inactive)	> 100 µM (inactive)	> 100 µM (inactive)	> 100 µM (inactive)	> 100 µM (inactive)	> 100 µM (inactive)	> 100 µM (inactive)	54.5 µM (inactive)	> 100 µM (inactive)	–
O=C(O)c1ccc(C(=O)O)c2c(C(=O)O)ccc(C(=O)O)c12	> 100 µM (inactive)	–	–	> 100 µM	> 100 µM (inactive)	> 100 µM (inactive)	> 100 µM (inactive)	> 100 µM (inactive)	> 100 µM (inactive)	> 100 µM (inactive)	> 100 µM (inactive)	> 100 µM (inactive)	> 100 µM (inactive)	> 100 µM (inactive)	> 100 µM (inactive)	> 100 µM (inactive)	> 100 µM (inactive)	> 100 µM (inactive)	> 100 µM (inactive)	> 100 µM (inactive)
O=C1C2C3C=C4c5ccccc5N(c5ccccc5)C4(C2C(=O)N1Cc1ccccc1)C1C(=O)N(Cc2ccccc2)C(=O)C31 (stereo not given)	> 100 µM (inactive)	> 100 µM (inactive)	> 100 µM (inactive)	> 100 µM	> 100 µM (inactive)	> 100 µM (inactive)	–	> 100 µM (inactive)	–	> 100 µM (inactive)	64 µM (inactive)	> 100 µM (inactive)	–	–	> 100 µM (inactive)	> 100 µM (inactive)	> 100 µM (inactive)	–	> 100 µM (inactive)	> 100 µM (inactive)
C[Si](C)(C)/C(I)=C/CO	24.1 µM (inactive)	22 µM (inactive)	–	24.8 µM	17 µM (inactive)	18 µM (inactive)	38.3 µM (inactive)	30.5 µM (inactive)	–	27.1 µM (inactive)	24.9 µM (inactive)	27.9 µM (inactive)	19 µM (inactive)	32.5 µM (inactive)	29.6 µM (inactive)	23.3 µM (inactive)	18.3 µM (inactive)	20.4 µM (inactive)	34.4 µM (inactive)	27.1 µM (inactive)
COc1ccc(/C(Cl)=C(\C=O)c2ccc(F)cc2)cc1	–	3.14 µM (inactive)	–	4.24 µM	3.56 µM (inactive)	14.8 µM (inactive)	–	–	–	8.36 µM (inactive)	8.43 µM (inactive)	16.7 µM (inactive)	9.06 µM (inactive)	40 µM (inactive)	17.9 µM (inactive)	6.81 µM (inactive)	6.58 µM (inactive)	9.08 µM (inactive)	8.15 µM (inactive)	13.7 µM (inactive)
Cc1ccnc2nc(N)ccc12	> 100 µM (inactive)	> 100 µM (inactive)	–	> 100 µM	> 100 µM (inactive)	> 100 µM (inactive)	> 100 µM (inactive)	> 100 µM (inactive)	> 100 µM (inactive)	> 100 µM (inactive)	> 100 µM (inactive)	> 100 µM (inactive)	> 100 µM (inactive)	> 100 µM (inactive)	> 100 µM (inactive)	> 100 µM (inactive)	> 100 µM (inactive)	> 100 µM (inactive)	> 100 µM (inactive)	> 100 µM (inactive)
COc1c2c(cc3c(CCc4ccccc4)cc(=O)oc13)CCC(C)(C)O2	–	> 100 µM (inactive)	> 100 µM (inactive)	> 100 µM	> 100 µM (inactive)	> 100 µM (inactive)	–	> 100 µM (inactive)	> 100 µM (inactive)	> 100 µM (inactive)	> 100 µM (inactive)	> 100 µM (inactive)	> 100 µM (inactive)	> 100 µM (inactive)	–	> 100 µM (inactive)	> 100 µM (inactive)	> 100 µM (inactive)	> 100 µM (inactive)	> 100 µM (inactive)
CCOC(=O)C(=O)NC12CC3CC(CC(C3)C1)C2	> 100 µM (inactive)	> 100 µM (inactive)	> 100 µM (inactive)	> 100 µM	–	> 100 µM (inactive)	> 100 µM (inactive)	> 100 µM (inactive)	> 100 µM (inactive)	> 100 µM (inactive)	> 100 µM (inactive)	> 100 µM (inactive)	> 100 µM (inactive)	> 100 µM (inactive)	> 100 µM (inactive)	> 100 µM (inactive)	> 100 µM (inactive)	> 100 µM (inactive)	> 100 µM (inactive)	> 100 µM (inactive)
CC=C/C=C/[C@@H]1O[C@](O)([C@H](CC)C(=O)NC/C=C/C=C(\C)[C@@H](OC)[C@@H](C)[C@@H]2O[C@H](/C=C/C=C/C=C(\C)C(=O)c3c(O)cc[nH]c3=O)[C@H](O)[C@@H]2O)[C@H](O)[C@H](O)C1(C)C	> 100 µM (inactive)	–	> 100 µM (inactive)	> 100 µM	73.6 µM (inactive)	> 100 µM (inactive)	> 100 µM (inactive)	> 100 µM (inactive)	–	> 100 µM (inactive)	69.7 µM (inactive)	> 100 µM (inactive)	–	> 100 µM (inactive)	> 100 µM (inactive)	> 100 µM (inactive)	> 100 µM (inactive)	> 100 µM (inactive)	> 100 µM (inactive)	94.2 µM (inactive)
Cc1ccc2c3c1[C@@H]1O[C@@H]1c1cccc(c1-3)[C@@H]1O[C@H]21	15.9 µM (inactive)	–	–	15.3 µM	3.96 µM (inactive)	15.1 µM (inactive)	17.5 µM (inactive)	18.1 µM (inactive)	–	12.8 µM (inactive)	15.8 µM (inactive)	10.2 µM (inactive)	15 µM (inactive)	26.7 µM (inactive)	19.8 µM (inactive)	–	11.9 µM (inactive)	20 µM (inactive)	12 µM (inactive)	15.3 µM (inactive)
CC(=C(c1ccccc1)c1ccccc1)N1C(=O)CC(=O)N1C	35 µM (inactive)	40 µM (inactive)	47 µM (inactive)	–	38.4 µM (inactive)	> 100 µM (inactive)	32.1 µM (inactive)	53.2 µM (inactive)	15.4 µM (inactive)	25.5 µM (inactive)	52.7 µM (inactive)	55.5 µM (inactive)	95.7 µM (inactive)	> 100 µM (inactive)	81.7 µM (inactive)	> 100 µM (inactive)	61.4 µM (inactive)	26 µM (inactive)	17.1 µM (inactive)	–
CN(C)C(=O)C(F)(F)C(c1ccc(Br)cc1)C1C(=O)N(C)C(=O)N(C)C1=O (stereo not given)	> 100 µM (inactive)	> 100 µM (inactive)	> 100 µM (inactive)	> 100 µM	–	> 100 µM (inactive)	> 100 µM (inactive)	> 100 µM (inactive)	> 100 µM (inactive)	> 100 µM (inactive)	> 100 µM (inactive)	> 100 µM (inactive)	> 100 µM (inactive)	> 100 µM (inactive)	> 100 µM (inactive)	> 100 µM (inactive)	> 100 µM (inactive)	> 100 µM (inactive)	> 100 µM (inactive)	–
COC(=O)C(Cc1ccc(N(C)C)cc1)(NC(=O)c1ccccc1)P(=O)(OC)OC (stereo not given)	> 100 µM (inactive)	> 100 µM (inactive)	> 100 µM (inactive)	> 100 µM	> 100 µM (inactive)	> 100 µM (inactive)	> 100 µM (inactive)	> 100 µM (inactive)	> 100 µM (inactive)	> 100 µM (inactive)	> 100 µM (inactive)	> 100 µM (inactive)	> 100 µM (inactive)	> 100 µM (inactive)	> 100 µM (inactive)	> 100 µM (inactive)	> 100 µM (inactive)	> 100 µM (inactive)	> 100 µM (inactive)	–
